Legend:
[1] = system: chickweed; assay: Test C postemergence herbicide test; assay type: in vivo, Stellaria media
How it was run: (§1)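 Postemergence sprays were applied to plants 2 to 18 cm tall (1- to 4-leaf stage); in the flooded paddy test, barnyardgrass was grown to the 2-leaf stage. After 12 to 14 days in a greenhouse, injury was visually rated against untreated controls on a 0–100 scale (100 = complete control).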

[2] = system: bermudagrass; assay: Test E pre-/postemergence herbicide test; assay type: in vivo, Cynodon dactylon; details: Preemergence
How it was run: (§2)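 Test chemicals in a non-phytotoxic solvent mixture with surfactant applied preemergence to planted seeds and postemergence to plants 2 to 18 cm tall (1- to 4-leaf stage). After 12 to 14 days in the greenhouse, injury rated visually against untreated controls on a 0–100 scale (0 no effect, 100 complete control).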

[3] = system: wild oat; assay: Test C postemergence herbicide test; assay type: in vivo, Avenafatua
How it was run: as §1

[4] = system: common chickweed; assay: Test E pre-/postemergence herbicide test; assay type: in vivo, Stellaria media; details: Preemergence
How it was run: as §2

[5] = system: green foxtail; assay: Test E pre-/postemergence herbicide test; assay type: in vivo, Setaria viridis; details: Preemergence
How it was run: as §2

[6] = system: mustard; assay: Test E pre-/postemergence herbicide test; assay type: in vivo, Brassica nigra; details: Preemergence
How it was run: as §2

[7] = system: prickly sida; assay: Test E pre-/postemergence herbicide test; assay type: in vivo, Sida spinosa; details: Preemergence
How it was run: as §2

[8] = system: common sowthistle; assay: Test E pre-/postemergence herbicide test; assay type: in vivo, Sonchus oleraceous; details: Preemergence
How it was run: as §2

[9] = system: barnyardgrass; assay: Test E pre-/postemergence herbicide test; assay type: in vivo, Echinochloa crus-galli; details: Preemergence
How it was run: as §2

[10] = system: windgrass; assay: Test C postemergence herbicide test; assay type: in vivo, Apera spica-venti
How it was run: as §1

[11] = system: common ragweed; assay: Test E pre-/postemergence herbicide test; assay type: in vivo, Ambrosia elatior; details: Preemergence
How it was run: as §2

[12] = system: common mallow; assay: Test E pre-/postemergence herbicide test; assay type: in vivo, Malva sylvestris; details: Preemergence
How it was run: as §2

[13] = system: downy bromegrass; assay: Test E pre-/postemergence herbicide test; assay type: in vivo, Bromus tectorum; details: Preemergence
How it was run: as §2

[14] = system: field bindweed; assay: Test E pre-/postemergence herbicide test; assay type: in vivo, Convolvulus arvensis; details: Preemergence
How it was run: as §2

[15] = Postemergence, 500 g ai/ha, scale 0 to 100
[16] = Postemergence, 250 g ai/ha, scale 0 to 100, 0 no effect, 100 complete control
[17] = postemergence, 125 g ai/ha, scale 0 to 100
[18] = postemergence, 62 g ai/ha, scale 0 to 100
[19] = 125 g ai/ha, scale 0 (no effect) to 100 (complete control)
[20] = 250 g ai/ha, scale 0 (no effect) to 100 (complete control)
[21] = 500 g ai/ha, scale 0 (no effect) to 100 (complete control)

CCNC(=O)c1cccc(NC(=O)c2cc(C(C)(C)C)nn2CC)n1 [Compound 144]
Chickweed plant response rating [1, 15]: 100 | Plant response rating, Chickweed [1, 16]: 100 | Plant response rating, Chickweed [1, 17]: 100 | Plant response rating, Chickweed [1, 18]: 100 | Plant response rating, Bermudagrass ([2]; 62 g ai/ha, scale 0 to 100): 50 | Plant response rating, Bermudagrass [2, 19]: 80 | Plant response rating, Bermudagrass [2, 20]: 85 | Plant response rating, Bermudagrass [2, 21]: 90 | Oat, Wild plant response rating [3, 15]: 50 | Plant response rating, Oat, Wild [3, 16]: 50 | Plant response rating, Oat, Wild [3, 17]: 50 | Plant response rating, Oat, Wild [3, 18]: 30 | Plant response rating, Chickweed ([4]; 62 g ai/ha, scale 0 to 100): 50 | Plant response rating, Chickweed [4, 19]: 90 | Plant response rating, Chickweed [4, 20]: 95 | Plant response rating, Chickweed [4, 21]: 95 | Plant response rating, Foxtail, Green ([5]; 62 g ai/ha, scale 0 to 100): 10 | Plant response rating, Foxtail, Green [5, 19]: 50 | Plant response rating, Foxtail, Green [5, 20]: 80 | Plant response rating, Foxtail, Green [5, 21]: 90 | Plant response rating, Black Mustard ([6]; 62 g ai/ha, scale 0 to 100): 20 | Plant response rating, Black Mustard [6, 19]: 70 | Plant response rating, Black Mustard [6, 20]: 75 | Plant response rating, Black Mustard [6, 21]: 100 | Plant response rating, Prickly Sida ([7]; 62 g ai/ha, scale 0 to 100): 10 | Plant response rating, Prickly Sida [7, 19]: 90 | Plant response rating, Prickly Sida [7, 20]: 90 | Plant response rating, Prickly Sida [7, 21]: 95 | Plant response rating, Sowthistle ([8]; 62 g ai/ha, scale 0 to 100): 10 | Plant response rating, Sowthistle [8, 19]: 50 | Plant response rating, Sowthistle [8, 20]: 90 | Plant response rating, Sowthistle [8, 21]: 95 | Plant response rating, Barnyardgrass ([9]; 62 g ai/ha, scale 0 to 100): 30 | Plant response rating, Barnyardgrass [9, 19]: 60 | Plant response rating, Barnyardgrass [9, 20]: 80 | Plant response rating, Barnyardgrass [9, 21]: 90 | Windgrass plant response rating [10, 15]: 70 | Plant response rating, Windgrass [10, 16]: 60 | Plant response rating, Windgrass [10, 17]: 60 | Plant response rating, Windgrass [10, 18]: 50 | Plant response rating, Ragweed ([11]; 62 g ai/ha, scale 0 to 100): 0 | Plant response rating, Ragweed [11, 19]: 30 | Plant response rating, Ragweed [11, 20]: 40 | Plant response rating, Ragweed [11, 21]: 40 | Plant response rating, Mallow ([12]; 62 g ai/ha, scale 0 to 100): 60 | Plant response rating, Mallow [12, 19]: 60 | Plant response rating, Mallow [12, 20]: 70 | Plant response rating, Mallow [12, 21]: 95 | Plant response rating, Bromegrass, Downy ([13]; 62 g ai/ha, scale 0 to 100): 20 | Plant response rating, Bromegrass, Downy [13, 19]: 50 | Plant response rating, Bromegrass, Downy [13, 20]: 60 | Plant response rating, Bromegrass, Downy [13, 21]: 80 | Plant response rating, Bindweed, Field ([14]; 62 g ai/ha, scale 0 to 100): 0 | Plant response rating, Bindweed, Field [14, 20]: 50 | Plant response rating, Bindweed, Field [14, 21]: 80

CCc1nn(C(C)C)nc1C(=O)Nc1cccc(C(=O)N(C)CC)c1 [Compound 386]
Plant response rating, Bermudagrass ([2]; 125 g ai/ha, scale 0 to 100): 80 | Plant response rating, Bermudagrass [2, 20]: 95 | Plant response rating, Chickweed ([4]; 125 g ai/ha, scale 0 to 100): 95 | Plant response rating, Chickweed [4, 20]: 95 | Plant response rating, Foxtail, Green ([5]; 125 g ai/ha, scale 0 to 100): 60 | Plant response rating, Foxtail, Green [5, 20]: 95 | Plant response rating, Black Mustard [6, 20]: 70 | Plant response rating, Prickly Sida ([7]; 125 g ai/ha, scale 0 to 100): 100 | Plant response rating, Prickly Sida [7, 20]: 100 | Plant response rating, Sowthistle ([8]; 125 g ai/ha, scale 0 to 100): 60 | Plant response rating, Sowthistle [8, 20]: 100 | Plant response rating, Barnyardgrass ([9]; 125 g ai/ha, scale 0 to 100): 80 | Plant response rating, Barnyardgrass [9, 20]: 100 | Plant response rating, Ragweed ([11]; 125 g ai/ha, scale 0 to 100): 20 | Plant response rating, Ragweed [11, 20]: 60 | Plant response rating, Mallow ([12]; 125 g ai/ha, scale 0 to 100): 60 | Plant response rating, Mallow [12, 20]: 70 | Plant response rating, Bromegrass, Downy ([13]; 125 g ai/ha, scale 0 to 100): 10 | Plant response rating, Bromegrass, Downy [13, 20]: 40 | Plant response rating, Bindweed, Field ([14]; 125 g ai/ha, scale 0 to 100): 20 | Plant response rating, Bindweed, Field [14, 20]: 60

Source: patent US20060069132A1, “Azolecarboxamide herbicides” (priority 2004, published 2006)
